From patent US20120190703A1, “SALTS OF 13A-(S)DESOXYTYLOPHORININE, PREPARATION METHODS AND PHARMACEUTICAL COMPOSITIONS AND USES THEREOF” (priority 2009, published 2012)
Values joined by “and” are separate entries in the source; they are usually repeats but may differ in a detail not shown here. Identical values can stand only once. Like-named read-outs stand apart in the source and are kept apart here. Marks after values point to notes of the source that are not given here.

What was measured:
[1] = Plasma pharmacokinetics after oral administration in mice
Experimental: To determine the pharmacokinetic characters of 13a-(S)-deoxytylophorinine and its salts, the studies about plasma pharmacokinetics and the character of distribution in brain were pursued.
(§1) Male ICR mice. Body weight 18˜22 g.
(+)-13a-(S)-deoxytylophorinine Tartrate, (+)-13a-(S)-deoxytylophorinine Maleate, (+)-13a-(S)-deoxytylophorinine Citrate. All were dissolved in distilled water as 0.6 mg/ml solution before experiment progressed.
72 mice were divided to 3 groups with 24 animals per group, fasting for 16 h and drinking water freely. […] Plasma was isolated by centrifugalization. After the salts were administered orally, the brain tissues of mice were collected at 5 min, 15 min, 2 h time points. 25% tissue homogenate was prepared with normal saline addition. 200 μL of homogenate and plasma were added isovolumic MeCN to precipitate protein. 5 μL of clear supernatant was analyzed by LC/MS/MS.
(+)-13a-(S)-deoxytylophorinine was dissolved in DMSO and then diluted with MeOH with concentration 10, 50, 100, 500, 1000 and 2500 ng/ml respectively. 10 μl of standard solutions of (+)-13a-(S)-deoxytylophorinine with different concentration above were added to 200 μl of blank plasma sequently to adjust the concentration to 0.5, 2.5, 5, 25, 50, 125 ng/ml respectively. MeCN was added to the solution to precipitate protein, and 5 μl of result clear supernatant was analyzed with LC/MS/MS. Linear regression was ran with the peak area of (+)-13a-(S)-deoxytylophorinine as ordinate and the concentrations as abscissa.

Solubility in water = assay type: physicochemical
H22 tumor-bearing mice = conditions: intragastric once daily
Source text: To determine the pharmacodynamic characters of 13a-(S)-deoxytylophorinine and its salts, the impact of these compounds to the tumor growth in H22 tumor-bearing mice was surveyed.
Male Kunming mice were obtained from the Laboratory Animal Center, Academy of Military Medical Science. Body weight 18˜22 g. 6 animals per group, totally 10 groups, 60 animals.
(+)-13a-(S)-deoxytylophorinine, (+)-13a-(S)-deoxytylophorinine Tartrate, (+)-13a-(S)-deoxytylophorinine Maleate, (+)-13a-(S)-deoxytylophorinine Citrate, Cytoxane (CTX) as positive control.
(+)-13a-(S)-deoxytylophorinine was administered at high dose (5 mg/kg) and low dose (2.5 mg/kg). Three (+)-13a-(S)-deoxytylophorinine salts were administered at high dose and low dose as equal moles with their prototype (Tartrate: 7.05 mg/kg, 3.53 mg/kg; Malate: 6.60 mg/kg, 3.30 mg/kg; Citrate: 7.90 mg/kg, 3.95 mg/kg).
Animals were reared in SPF grade circumstance to be observed for 24 h. The tumor cells liquid which resuscitated in abdominal cavity of KM mice was diluted with aseptic normal saline at 1:3 ratio. The resulting liquid was inoculated subcutaneously at forelimb with 0.2 mL every animal. After the injection over, the animals were divided to […] with 6 animals per group.
Four experimental samples were intragastric administered once daily 24 h after inoculation. The positive control CTX was intraperitoneal injected once daily. The animal body weight was recorded every day.

[2] = Drug distribution in brain tissue after oral administration in mice; assay type: in vivo, ICR mice; conditions: for Brain contents of (+)-13a-(S)-deoxytylophorinine (ng/ml), Mean ± SD / Brain contents of (+)-13a-(S)-deoxytylophorinine (ng/ml), individual animals 1-3: 6 mg/kg oral
Experimental: as §1
Plasma was isolated by centrifugalization. […] 25% tissue homogenate was prepared with normal saline addition.
The drug concentration-time data in brain tissue after administered orally of (+)-13a-(S)-deoxytylophorinine tartrate, maleate and citrate were represented in Table 8˜10 and FIG. 6˜8. […] (+)-13a-(S)-deoxytylophorinine could be detected in 5 min. The peak concentration was reached after 15 min, and the compound still can be detected after 2 h after administration.

[3] = 6 mg/kg oral, mice, Time (min) 3
[4] = 6 mg/kg oral, mice, Time (min) 6
[5] = male, ICR, mouse, plasma, po, 6 mg/kg
[6] = high dose × 7 d, equal moles: prototype 5.0, tartrate 7.05, maleate 6.60, citrate 7.90 mg/kg
[7] = low dose × 7 d, equal moles: prototype 2.5, tartrate 3.53, maleate 3.30, citrate 3.95 mg/kg

COc1ccc2c3c(c4cc(OC)c(OC)cc4c2c1)CN1CCC[C@H]1C3.O=C(O)C(O)C(O)C(=O)O [Tartrate, (+)-13a-(S)-deoxytylophorinine Tartrate]
Peak concentration in blood ([1]; 6 mg/kg oral, mice): 34.2 ± 3.1 ng/mL
Time of peak concentration in blood ([1]; 6 mg/kg oral, mice): 15 min
t½z ([1]; 6 mg/kg oral, mice, plasma, non-compartment model): 0.88 h
Blood concentration of (+)-13a-(S)-deoxytylophorinine (ng/ml), individual animals 1-3 ([1]; 6 mg/kg oral, mice, Time (min) 0.08): 18.4 ng/mL and 11.7 ng/mL and 42.0 ng/mL
Blood concentration of (+)-13a-(S)-deoxytylophorinine (ng/ml), individual animals 1-3 ([1]; 6 mg/kg oral, mice, Time (min) 0.25): 30.6 ng/mL and 36.1 ng/mL and 35.7 ng/mL
Blood concentration of (+)-13a-(S)-deoxytylophorinine (ng/ml), individual animals 1-3 ([1]; 6 mg/kg oral, mice, Time (min) 0.5): 16.5 ng/mL and 9.0 ng/mL and 7.8 ng/mL
Blood concentration of (+)-13a-(S)-deoxytylophorinine (ng/ml), individual animals 1-3 ([1]; 6 mg/kg oral, mice, Time (min) 1): 6.2 ng/mL and 10.0 ng/mL
Blood concentration of (+)-13a-(S)-deoxytylophorinine (ng/ml), individual animals 1-3 ([1]; 6 mg/kg oral, mice, Time (min) 2): 2.5 ng/mL and 12.4 ng/mL and 8.7 ng/mL
Blood concentration of (+)-13a-(S)-deoxytylophorinine (ng/ml), Mean ± SD [1, 3]: 4.5 ± 1.2 ng/mL
Blood concentration of (+)-13a-(S)-deoxytylophorinine (ng/ml), individual animals 1-3 [1, 3]: 3.0 ng/mL and 5.0 ng/mL and 5.3 ng/mL
Blood concentration of (+)-13a-(S)-deoxytylophorinine (ng/ml), individual animals 1-3 ([1]; 6 mg/kg oral, mice, Time (min) 4): 3.3 ng/mL and 4.2 ng/mL and 1.1 ng/mL
Blood concentration of (+)-13a-(S)-deoxytylophorinine (ng/ml), Mean ± SD [1, 4]: 0.4 ± 0.4 ng/mL
Blood concentration of (+)-13a-(S)-deoxytylophorinine (ng/ml), individual animals 1-3 [1, 4]: 0.0 ng/mL and 0.2 ng/mL and 0.8 ng/mL
concentration at 5 min ([1]; male, ICR, mouse, plasma, oral, 6 mg/kg, Blood concentration of (+)-13a-(S)-deoxytylophorinine (ng/ml), Mean ± SD, 6 mg/kg oral, mice, Time (min) 0.08): 24 ± 15.9 ng/mL
concentration at 15 min ([1]; male, ICR, mouse, plasma, oral, 6 mg/kg, Blood concentration of (+)-13a-(S)-deoxytylophorinine (ng/ml), Mean ± SD, 6 mg/kg oral, mice, Time (min) 0.25): 34.2 ± 3.1 ng/mL
concentration at 0.5 h ([1]; male, ICR, mouse, plasma, oral, 6 mg/kg, Blood concentration of (+)-13a-(S)-deoxytylophorinine (ng/ml), Mean ± SD, 6 mg/kg oral, mice, Time (min) 0.5): 11.1 ± 4.7 ng/mL
concentration at 1 h ([1]; male, ICR, mouse, plasma, oral, 6 mg/kg, Blood concentration of (+)-13a-(S)-deoxytylophorinine (ng/ml), Mean ± SD, 6 mg/kg oral, mice, Time (min) 1): 8.1 ± 2.7 ng/mL
concentration at 2 h ([1]; male, ICR, mouse, plasma, oral, 6 mg/kg, Blood concentration of (+)-13a-(S)-deoxytylophorinine (ng/ml), Mean ± SD, 6 mg/kg oral, mice, Time (min) 2): 7.9 ± 5 ng/mL
concentration at 4 h ([1]; male, ICR, mouse, plasma, oral, 6 mg/kg, Blood concentration of (+)-13a-(S)-deoxytylophorinine (ng/ml), Mean ± SD, 6 mg/kg oral, mice, Time (min) 4): 2.8 ± 1.6 ng/mL
AUC(0-inf) [1, 5]: 37.9 ng·h/mL
AUC(0-t) [1, 5]: 37.4 ng·h/mL
Cmax [1, 5]: 34.2 ng/mL
MRT inf [1, 5]: 1.63 h
MRT last [1, 5]: 1.57 h
Tmax [1, 5]: 0.25 h
Solubility in water (words) (Solubility in water): soluble in water
solubility (Solubility in water; water): 39 mg/mL
Animal No. (Initial/Final) (H22 tumor-bearing mice; [6]): 6/6
Body Weight(g) Final (H22 tumor-bearing mice; [6]): 13.55 ± 1.87 g
Body Weight(g) Initial (H22 tumor-bearing mice; [6]): 22.00 ± 1.55 g⁻¹
Inhibition (%) (H22 tumor-bearing mice; [6]): 80.35** %
Tumor Weight (g, mean ± SD) (H22 tumor-bearing mice; [6]): 0.23 ± 0.15 g
Animal No. (Initial/Final) (H22 tumor-bearing mice; [7]): 6/6
Body Weight(g) Final (H22 tumor-bearing mice; [7]): 19.76 ± 2.34 g
Body Weight(g) Initial (H22 tumor-bearing mice; [7]): 21.50 ± 0.84 g⁻¹
Inhibition (%) (H22 tumor-bearing mice; [7]): 31.88%
Tumor Weight (g, mean ± SD) (H22 tumor-bearing mice; [7]): 0.78 ± 0.48 g
Brain contents of (+)-13a-(S)-deoxytylophorinine (ng/ml), Mean ± SD ([2]; Time (min) 5): 48.0 ± 21.6 ng/mL
Brain contents of (+)-13a-(S)-deoxytylophorinine (ng/ml), individual animals 1-3 ([2]; Time (min) 5): 32.4 ng/mL and 38.8 ng/mL and 72.7 ng/mL
Brain contents of (+)-13a-(S)-deoxytylophorinine (ng/ml), Mean ± SD ([2]; Time (min) 15): 262.9 ± 11.9 ng/mL
Brain contents of (+)-13a-(S)-deoxytylophorinine (ng/ml), individual animals 1-3 ([2]; Time (min) 15): 249.3 ng/mL and 271.0 ng/mL and 268.5 ng/mL
Brain contents of (+)-13a-(S)-deoxytylophorinine (ng/ml), Mean ± SD ([2]; Time (min) 120): 45.7 ± 33.0 ng/mL
Brain contents of (+)-13a-(S)-deoxytylophorinine (ng/ml), individual animals 1-3 ([2]; Time (min) 120): 24.7 ng/mL and 28.7 ng/mL and 83.7 ng/mL
Drug contents in brain compared with prototype ([2]; oral, 3 time points): higher than their prototype
